# Reference: patent US5716964A, “Tetrazolyl substituted imidazo[1,2-a]pyridinylalkyl compounds for treatment of neurotoxic injury” (G.D. Searle & Co., priority 1995, dated 1998)
# Structures can show the parent of a compound that is named as a salt.
# Assays:
# [1] = molecular target: AMPA (QUIS) receptor; assay: [3H]AMPA (QUIS) binding assay; conditions: [3H]AMPA 10 nM, 100 mM KSCN, SPM, 0-4 °C, 10 min; read-out: Ki IC50 Binding, AMPA
# Protocol: Synaptic plasma membranes (SPM) were prepared as previously described [Monahan, J. B. and Michel, J., "Identification and Characterization of an N-methyl-D-aspartate-specific L[^3 H]glutamate Recognition Site in Synaptic Plasma Membranes, J. Neurochem., 48, 1699-1708 (1987)]. The SPM were stored at a concentration of 10-15 mg/ml in 0.32M sucrose, 0.5 mM EDTA, 1mM MgSO4, 5 mM Tris/SO4, pH 7.4, under liquid nitrogen. The identity and purity of the subcellular fractions were confirmed by both electron microscopy and marker enzymes. Protein concentrations were determined by using a modification of the method of Lowry [Ohnishi, S. T. and Barr, J. K., "A Simplified Method of Quantitating Proteins Using the Biuret and Phenol Reagents", Anal. Biochem., 86, 193-197 (1978)]. The SPM were treated identically for the [^3 H]AMPA (QUIS), [^3 H]kainate and sodium-dependent L-[^3 H]-glumatate binding assays. The SPM were thawed at room temperature, diluted twenty-fold with 50 mM Tris/acetate, pH 7.4, incubated at 37° C. for 30 minutes, and centrifuged at 100,000 g for 15 minutes. The dilution, incubation, and centrifugation was repeated a total of three times. Prior to use in the NMDA specific L-[^3 H]-glutamate binding assay the SPM were thawed, diluted twenty fold with 50 mM Tris/acetate, pH 7.4 containing 0.04% (v/v) Triton X-100, incubated for 30 minutes at 37° C. and centrifuged as described above. The Triton X-100 treated membranes were washed with 50 mM Tris/acetate, pH 7.4 and centrifuged at 100,000 g for 15 minutes a total of four times. […] The basic procedure for the receptor subclass binding assays was similar. This general method involved adding the radioligand (12.5 nM L-[^3 H]glutamate; 0.5 nM [^3 H]kainate or 10 nM [^3 H]AMPA) to the appropriate concentration of the test compound and initiating the assay by the addition of ice cold synaptic plasma membranes (0.2-0.45 mg). The binding assays were performed in 1.5 mL centrifuge tubes with the total volume adjusted to 1.0 mL. Additions of test compounds were made in 50 mM Tris/acetate, pH 7.4 and incubations were carried out at 0°-4° C. The incubation time for the NMDA and the AMPA binding assays was 10 minutes, for the kainate binding assay 60 minutes and for the sodium-dependent glutamate binding assay 15 minutes. The AMPA binding assay contained 100 mM KSCN and the sodium-dependent glutamate binding assay contained 150 mM sodium acetate in addition to the previously described reagents. To terminate the incubation, the samples were centrifuged for 15 minutes at 12,000 g and 4° C. in a Beckman Microfuge 12. The supernatant was aspirated and the pelleted membranes dissolved in Beckman BTS-450 tissue solubilizer for a minimum of 6 hours at room temperature. Beckman MP scintillation cocktail containing 7 mL/l acetic acid was then added and the samples counted on a Beckman LS 5800 or 3801 liquid scintillation counter with automatic corrections for quenching and counting efficiency. Nonspecific binding was defined as the residual binding in the presence of either excess L-glutamate (0.1-0.4 mM), kainate (0.01 mM), or NMDA (0.5 mM), and was 15-25% of the total binding in the NMDA binding assay, 19-27% in the AMPA binding assay, 20-30% in the kainate binding assay and 10-15% in the sodium-dependent binding assay. Radioligand binding to the synaptic plasma membranes was analyzed using Scatchard and Hill transformations and the Ki values of the compounds determined using logit-log transformations. Calculations and regression analysis were performed using templates developed for Lotus 1, 2, 3 as previously described [Pullan, L. M. "Automated Radioligand Receptor Binding Analysis with Templates for Lotus", Computer Appln. Biosci., 3, 131 (1987)]. Binding results are reported in Table I for example compounds of the invention.
# [2] = system: NMDA; conditions: Murphy et al. 1987; cited from earlier work
# [3] = system: TCP (1-[1-(2-thienyl)cyclohexyl]piperidine) binding in rat brain synaptic membranes; assay: TCP modulation assay ([3H]TCP binding); conditions: printed in the column TCP Ki IC50
# Protocol: The effect on the TCP (1-[1-(2-thienyl)cyclohexyl]piperidine) binding was measured in rat brain synaptic membranes (SPM) prepared as previously described [J. B. Monahan & J. Michel; J. Neurochem. 48:1699-1708 (1987)]. Prior to their use in the binding assay, frozen SPM were thawed, diluted twenty fold with 50 mM Tris/acetate (pH 7.4 containing 0.04% (v/v) Triton X-100), incubated for 30 min. at 37° C. and centrifuged at 95,000×g for 15 min. The Triton X-100 treated SPM were washed with 5 mM Tris/HCl, pH 7.4 and centrifuged a total of six times. The compound of Example #7 was incubated at different concentrations with SPM (0.2-0.4 mg protein) and 2 nM tritiated TCP, in a total volume of 0.5 ml of 5 mM Tris/HCl buffer pH 7.4 at 25° C. for 60 min. The samples were filtered through glass fiber filters (Schleicher & Schuell #32) which have been pretreated with 0.05% (v/v) polyethylenimine, washed 4 times with 2 ml of ice-cold 5 mM Tris/HCl buffer, and then counted on a Beckman LS 5800 liquid scintillation counter with automatic corrections for quenching and counting efficiency. Inhibition of TCP binding was measured as a decrease in the binding in the presence of 0.05 mM L-glutamate. Non-specific binding was defined as the residual binding in the presence of […] phencyclidine.
# [4] = system: cGMP levels in cerebellum; assay: Effect on cGMP levels in cerebellum; format: in vivo, mouse (Swiss-Webster); conditions: s.c.
# Protocol: The purpose of this assay is to determine the extent of in vivo bioavailability and the potency as an NMDA antagonist of compound of the invention as compared to known NMDA antagonists, namely, 3(2-carboxypiperizine-4-yl)propyl-1-phosphonic acid (CPP~ and cis-4-phosphonomethyl-2-piperidinecarboxylic acid (CGS 19755). Male Swiss-Webster mice (17-24 g were injected sub-cutaneously (s.c.) with compound of the invention and the known NMDA antagonist standards 30 minutes prior to sacrifice by focussed microwave irradiation. Groups consisted of 7-10 mice. Compounds of Ex. #7 was dissolved in isotonic saline and all compounds were administered in a volume of 0.2 ml per mouse. Cerebella samples were extracted in IN HCl. Hydrochloric acid in extracts of the cerebellum were freeze-dried for assay of cGMP with a commercial RIA kit (NEN). Statistics (Dunett's t-test) were performed as described previously [P. L. Wood et al., Neurochem, 19, 975-982 (1980)]. ED50 values were calculated from log-logit transformation of the dose-response data.
# [5] = system: mice (motor function); assay: Inverted screen test for motor impairment; format: in vivo, mouse (CD-1)
# From the text: (§1) 6, 351-353 (1977)]. […] The screens were then slowly inverted. […] The current was held constant at 15 mA. […] There were 10 mice in each treatment group.
# [6] = system: mice (tonic hindlimb extensor seizures); assay: Anticonvulsant assay (electroconvulsive shock, tonic hindlimb extensor seizures); format: in vivo, mouse (CD-1); conditions: s.c., 30 min prior to ECS
# From the text: as §1
# [7] = system: Mongolian gerbils, CA1 region of the hippocampus; assay: Forebrain ischemia assay (bilateral carotid occlusion, CA1 hippocampal neuron count); format: in vivo, Mongolian gerbil; conditions: vs control, Mann-Whitney U test
# Protocol: This assay was used to determine the extent of protection afforded by compound of the invention to neural brain cells subjected to ischemic conditions. Male Mongolian gerbils, 50-70 gm, were used as subjects. Compound No. 7 (30 mg/kg) was injected i.p. 30 minutes prior to carotid occlusion into 6 gerbils […]. In preparation for surgical procedures, the animals were lightly anesthetized with methoxyflurane and placed upside down on a heated pad with their snout within a nosecone. A 70:30 mixture of nitrous oxide and oxygen containing 0.5% halothane was circulated through the nosecone to provide continuous anesthesia throughout the surgical procedure. A midline incision was made in the neck and the carotid arteries were exposed. A length of suture thread was placed under each carotid. […] Quantification of the resulting lesion is made by counting the pyramidal cell somata in a 0.5 mm length of CAl of the hippocampus on the section corresponding to P 1.7 mm in the gerbil brain atlas.
# Normal cell count in this region of the hippocampus in unoperated gerbils is 146±2. The effects of compound of Ex. #7 were assessed by comparing the number of neural cells found in the hippocampus of subjects treated with Ex. #7 compound with the cell number found in the appropriate control groups. […]
structure (smiles),measurement,setting,value
"O=C(O)c1cn2cc(CP(=O)(O)O)ccc2n1 [Example 13, 6-(phosphonomethyl)imidazo[1,2-a]pyridine-2-carboxylic acid]",Ki,[1],> 300 µM
"O=C(O)c1cn2ccc(CP(=O)(O)O)cc2n1 [Example 18, 7-(phosphonomethyl)imidazo[1,2-a]pyridine-2-carboxylic acid]",Ki,[1],> 300 µM
"O=C(O)C1CN(CCCP(=O)(O)O)CCN1 (stereo not drawn) [CPP, 3-(2-carboxypiperazin-4-yl)propyl-1phosphonic acid]","NMDA antagonism, in words",[2],potent and selective NMDA antagonist
"Cc1c(C(=O)O)nc2c(CP(=O)(O)O)cccn12 [Example 67, 3-methyl-8-(phosphonomethyl)imidazo[1,2-a]pyridine-2-carboxylic acid, monohydrochloride]",Ki,[1],> 300 µM
"O=C(O)c1cn2cccc(CP(=O)(O)O)c2n1 [Example 23, 8-(phosphonomethyl)imidazo[1,2-a]pyridine-2-carboxylic acid]",Ki,[1],> 300 µM
"O=C(O)c1cn2c(CP(=O)(O)O)c(Cl)ccc2n1 [Example 30, 6-chloro-5-(phosphonomethyl)imidazo[1,2-a]pyridine-2-carboxylic acid]",Ki,[1],> 300 µM
"O=C(O)c1cn2c(C(O)P(=O)(O)O)cccc2n1 (stereo not drawn) [Example 57, 5-(hydroxyphosphonomethyl)imidazo[1,2-a]pyridine-2-carboxylic acid, monohydrochloride]","TCP binding, result in words",[3],antag.
same,Ki,[1],> 300 µM
"O=C(O)c1cn2c(CP(=O)(O)O)cccc2n1 [Example 7, 5-(phosphonomethyl)imidazo[1,2-a]pyridine-2-carboxylic acid]","brain bioavailability (decrease of cGMP in mouse cerebellum), in words",[4],brain bioavailable
same,"potency compared with CPP, in words",[4]; decrease in cerebellar cGMP,in the same range of potency as the known NMDA antagonist CPP
same,Exhibiting Motor Impairments,[5]; 10 mg/kg s.c.,30 % of Mice
same,Exhibiting Motor Impairments,[5]; 32 mg/kg s.c.,50 % of Mice
same,Exhibiting Motor Impairments,[5]; 56 mg/kg s.c.,70 % of Mice
same,Exhibiting Motor Impairments,[5]; 100 mg/kg s.c.,90 % of Mice
same,"impairment of motor function, in words","[5]; s.c., inverted screen",impaired motor function in a similar dose range
same,"protection against tonic hindlimb extensor seizures, in words",[6],protected against tonic hindlimb extensor seizures in a dose-dependent fashion
same,"hippocampal cell loss after ischemia, in words",[7],significantly reduced
same,Ki,[1],> 300 µM
